pEC50, pIC50: −log10 of the molar value.
How the values were obtained:
[1] = system: cytochrome c oxidase subunit 2 DNA (mitochondrial DNA) levels; test: Mitochondrial toxicity in human HepG2 cells assessed as inhibition of cytochrome c oxidase subunit 2 DNA levels measured on day 14 by RT-PCR method; assay type: cell-based
[2] = Prodrug conversion in human primary hepatocytes assessed as increase in nucleoside 5' triphosphate levels at 50 uM after 4 hrs by LC-MS/MS analysis relative to sofosbuvir; assay type: ADME, cell-based, Hepatocyte
Cytochrome P450 1A2 = target: T1, Cytochrome P450 1A2 (Homo sapiens, UniProt P05177); test: Inhibition of human CYP1A2 using alpha-naphthoflavone […]; assay type: ADME
T1 sequence (P05177 whole entry): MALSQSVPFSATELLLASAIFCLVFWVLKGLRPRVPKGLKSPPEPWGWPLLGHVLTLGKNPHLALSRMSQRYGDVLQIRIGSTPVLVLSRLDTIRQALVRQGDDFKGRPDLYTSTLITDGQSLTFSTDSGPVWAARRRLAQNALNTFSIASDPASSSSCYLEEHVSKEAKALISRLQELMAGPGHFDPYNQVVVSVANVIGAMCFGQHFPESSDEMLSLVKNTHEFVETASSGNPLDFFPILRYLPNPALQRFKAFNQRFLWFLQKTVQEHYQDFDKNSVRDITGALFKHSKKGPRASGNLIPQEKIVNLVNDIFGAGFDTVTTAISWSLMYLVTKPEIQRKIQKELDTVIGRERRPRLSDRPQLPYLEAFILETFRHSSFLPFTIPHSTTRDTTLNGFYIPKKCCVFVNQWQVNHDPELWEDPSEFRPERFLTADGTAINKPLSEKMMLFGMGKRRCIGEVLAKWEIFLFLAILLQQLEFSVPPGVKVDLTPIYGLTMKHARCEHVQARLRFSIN

Hepatitis C virus [3] = test: Antiviral activity against HCV genotype 1b harboring NS5B S282T mutant infected in human HuH7 cells assessed as inhibition of viral RNA replication after 4 days by luciferase reporter gene assay; assay type: functional, cell-based, Hepacivirus hominis; conditions: Huh-7, 96 h
HepG2 [4] = test: Cytotoxicity against human HepG2 cells assessed as inhibition of nuclear DNA levels measured on day 14 by RT-PCR method; conditions: HepG2, 336 h
Hepatitis C virus [5] = test: Antiviral activity against HCV genotype 3a infected in human HuH7 cells assessed as inhibition of viral RNA replication after 96 hrs by RT-PCR method; assay type: functional, cell-based, Hepacivirus hominis; conditions: Huh-7, 96 h
HepG2 [6] = test: Mitochondrial toxicity in human HepG2 cells assessed as lactic acid production at 10 uM measured on day 14 by spectrophotometric method relative to control; assay type: cell-based; conditions: hepg2, 10 µM
HepG2 [7] = test: Mitochondrial toxicity in human HepG2 cells assessed as cytochrome c oxidase subunit 2 DNA levels at 50 uM measured on day 14 by RT-PCR method relative to nuclear beta-actin DNA levels; assay type: cell-based; conditions: hepg2, 50 µM
[8] = Cytotoxicity against African green monkey Vero cells assessed as inhibition of cell proliferation after 3 days by MTT assay; assay type: cell-based; conditions: chlorocebus sabaeus
[9] = system: cytochrome c oxidase subunit 2 DNA (mitochondrial DNA) levels; test: in vitro; conditions: human, HepG2 cells
[10] = system: cytochrome c oxidase subunit 2 DNA (mitochondrial DNA) levels; test: Mitochondrial toxicity in human HepG2 cells assessed as inhibition of cytochrome c oxidase subunit 2 DNA levels at 50 uM measured on day 14 by RT-PCR method relative to nuclear beta-actin DNA levels; assay type: cell-based
[11] = Metabolic stability in human intestinal microsomes assessed as compound remaining after 60 mins; assay type: ADME, Intestine, Microsome; conditions: read-out: Stability
HepG2 [12] = test: Mitochondrial toxicity in human HepG2 cells assessed as cytochrome c oxidase subunit 2 DNA levels at 10 uM measured on day 14 by RT-PCR method relative to nuclear beta-actin DNA levels; conditions: hepg2, 10 µM
Hepatitis C virus [13] = test: Antiviral activity against HCV genotype 2a/k infected in human HuH7 cells assessed as inhibition of viral RNA replication after 96 hrs by RT-PCR method; assay type: functional, cell-based, Hepacivirus hominis; conditions: Huh-7, 96 h
Hepatitis C virus [14] = test: Antiviral activity against HCV genotype 4 infected in human HuH7 cells assessed as inhibition of viral RNA replication after 96 hrs by RT-PCR method; assay type: functional, cell-based, Hepacivirus hominis; conditions: genotype 4, Huh-7, 96 h
Hepatitis C virus [15] = test: Antiviral activity against HCV genotype 1a infected in human HuH7 cells assessed as inhibition of viral RNA replication after 96 hrs by RT-PCR method; assay type: functional, cell-based, Hepacivirus hominis; conditions: subtype 1a, Huh-7, 96 h
[16] = Cytotoxicity against human primary BMNC cells up to 50 uM measured on day 14; assay type: cell-based
HepG2 [17] = test: Mitochondrial toxicity in human HepG2 cells assessed as lactic acid production at 50 uM measured on day 14 by spectrophotometric method relative to control; assay type: cell-based; conditions: hepg2, 50 µM
[18] = Clearance in human intestinal microsomes; assay type: ADME, Intestine, Microsome
[19] = Cytotoxicity against human CEM cells assessed as inhibition of cell proliferation after 4 days by MTT assay; assay type: cell-based, CCRF-CEM
in vitro [20] = conditions: human, liver microsomes
Description: Half life in human liver microsomes at 1 uM by LC-MS/MS analysis

Hepatitis C virus [21] = test: Antiviral activity against HCV genotype 1b infected in human HuH7 cells assessed as inhibition of viral RNA replication after 96 hrs by RT-PCR method; assay type: functional, cell-based, Hepacivirus hominis; conditions: Huh-7, 96 h
in vitro [22] = conditions: human, liver microsomes; remark: listed apart in the source
Description: Metabolic stability in human liver microsomes assessed as parent compound remaining at 1 uM at 60 mins by LC-MS/MS analysis

Hepatitis C virus [23] = test: Antiviral activity against HCV genotype 1b harboring wild type NS5B infected in human HuH7 cells assessed as inhibition of viral RNA replication after 5 days by RT-PCR method; assay type: functional, cell-based, Hepacivirus hominis; conditions: Huh-7, 120 h
[24] = Metabolic stability in human blood assessed as compound remaining at 2 uM after 2 hrs by LC-MS/MS method; assay type: ADME, tissue-based; conditions: read-out: Stability
Cytochrome P450 2D6 = Cytochrome P450 2D6 (Homo sapiens, UniProt P10635); test: Inhibition of human CYP2D6 using quinidine […]; assay type: ADME
Chain of Cytochrome P450 2D6 (P10635 whole entry): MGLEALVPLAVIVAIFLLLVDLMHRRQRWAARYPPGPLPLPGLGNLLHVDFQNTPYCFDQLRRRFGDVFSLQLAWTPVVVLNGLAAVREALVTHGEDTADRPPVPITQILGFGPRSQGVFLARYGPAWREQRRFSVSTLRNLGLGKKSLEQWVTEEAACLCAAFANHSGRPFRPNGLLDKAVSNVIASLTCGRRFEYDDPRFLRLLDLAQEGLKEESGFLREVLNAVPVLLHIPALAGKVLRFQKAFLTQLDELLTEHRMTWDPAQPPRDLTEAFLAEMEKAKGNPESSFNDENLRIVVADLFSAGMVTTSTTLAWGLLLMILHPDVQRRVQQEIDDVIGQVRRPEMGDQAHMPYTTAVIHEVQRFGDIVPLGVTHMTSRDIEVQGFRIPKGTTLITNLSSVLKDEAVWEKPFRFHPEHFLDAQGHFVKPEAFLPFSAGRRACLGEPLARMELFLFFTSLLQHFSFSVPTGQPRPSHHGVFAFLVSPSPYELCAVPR

[25] = Cytotoxicity against human PBMC assessed as inhibition of cell proliferation after 5 days by MTT assay; assay type: cell-based
Hepatitis C virus [26] = test: Selectivity ratio of EC90 for HCV genotype 1b harboring NS5B S282T mutant to EC90 for HCV genotype 1b harboring wild type NS5B; assay type: functional, Hepacivirus hominis
Cytochrome P450 3A4 = Cytochrome P450 3A4 (Homo sapiens, UniProt P08684); test: Inhibition of human CYP3A4 using ketoconazole […]; assay type: ADME
Chain of Cytochrome P450 3A4 (P08684 whole entry): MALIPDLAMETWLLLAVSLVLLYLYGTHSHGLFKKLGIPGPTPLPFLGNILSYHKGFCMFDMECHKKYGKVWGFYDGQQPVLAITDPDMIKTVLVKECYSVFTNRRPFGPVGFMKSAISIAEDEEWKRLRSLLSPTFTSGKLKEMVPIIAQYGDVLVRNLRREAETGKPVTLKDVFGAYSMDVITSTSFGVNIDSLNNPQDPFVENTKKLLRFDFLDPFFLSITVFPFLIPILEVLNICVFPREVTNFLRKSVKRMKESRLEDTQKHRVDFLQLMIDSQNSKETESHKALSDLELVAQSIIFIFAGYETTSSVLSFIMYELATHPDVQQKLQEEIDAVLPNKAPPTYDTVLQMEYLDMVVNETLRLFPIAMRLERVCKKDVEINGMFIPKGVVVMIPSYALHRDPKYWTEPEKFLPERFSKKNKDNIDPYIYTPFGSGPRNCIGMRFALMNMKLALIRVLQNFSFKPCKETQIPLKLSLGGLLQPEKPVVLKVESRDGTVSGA

[27] = Cytotoxicity against human HuH7 cells assessed as inhibition of cell proliferation after 4 days by MTS assay; assay type: cell-based, Huh-7
Hepatitis C virus [28] = test: Antiviral activity against HCV genotype 2b infected in human HuH7 cells assessed as inhibition of viral RNA replication after 96 hrs by RT-PCR method; assay type: functional, cell-based, Hepacivirus hominis; conditions: Huh-7, 96 h
[29] = Half life in human intestinal microsomes; assay type: ADME, Intestine, Microsome
[30] = Prodrug conversion in human HuH7 cells assessed as increase in nucleoside 5' triphosphate levels at 50 uM after 4 hrs by LC-MS/MS analysis relative to sofosbuvir; assay type: ADME, cell-based; conditions: huh-7, 4 h
nuclear DNA levels [31] = test: Cytotoxicity against human HepG2 cells assessed as inhibition of nuclear DNA levels at 50 uM measured on day 14 by RT-PCR method relative to nuclear beta-actin DNA levels; assay type: cell-based; conditions: read-out: INH
Cytochrome P450 2C9 = Cytochrome P450 2C9 (Homo sapiens, UniProt P11712); test: Inhibition of human CYP2C9 using sulfaphenazole […]; assay type: ADME
Chain of Cytochrome P450 2C9 (P11712 whole entry): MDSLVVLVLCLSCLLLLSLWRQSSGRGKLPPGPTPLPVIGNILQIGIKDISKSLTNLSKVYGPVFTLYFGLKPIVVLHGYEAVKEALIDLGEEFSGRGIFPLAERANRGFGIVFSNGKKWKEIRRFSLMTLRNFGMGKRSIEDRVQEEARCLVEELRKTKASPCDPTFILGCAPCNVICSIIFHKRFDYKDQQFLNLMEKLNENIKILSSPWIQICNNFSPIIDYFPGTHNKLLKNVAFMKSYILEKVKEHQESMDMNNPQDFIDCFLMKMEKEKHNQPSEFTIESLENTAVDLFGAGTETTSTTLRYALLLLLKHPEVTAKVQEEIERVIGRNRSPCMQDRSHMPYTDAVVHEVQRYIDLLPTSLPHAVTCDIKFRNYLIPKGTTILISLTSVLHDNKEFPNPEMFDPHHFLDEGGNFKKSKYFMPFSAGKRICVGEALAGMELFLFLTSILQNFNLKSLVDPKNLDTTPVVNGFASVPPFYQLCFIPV

Hepatitis C virus [32] = test: Selectivity ratio of EC50 for HCV genotype 1b harboring NS5B S282T mutant to EC50 for HCV genotype 1b harboring wild type NS5B; assay type: functional, Hepacivirus hominis
nuclear DNA levels [33] = test: in vitro; conditions: human, HepG2 cells
in vitro [34] = conditions: human, liver microsomes; remark: listed apart in the source
Description: Clearance in human liver microsomes at 1 uM by LC-MS/MS analysis

Question: With `CC(C)OC(=O)[C@H](C)NP(=O)(OC[C@H]1O[C@@H](n2ccc(=O)[nH]c2=O)[C@@](F)(Cl)[C@@H]1O)Oc1ccccc1` (mixture of isomers) as the molecule, how does the IC50 at 14 days [1] read?
Answer: Its IC50 at 14 days is greater than 50000 nM.

Question: And the “fold change (FC)” value [2]?
Answer: The value was 2.3.

Question: What about the pIC50 (Cytochrome P450 1A2) of the same molecule?
Answer: The pIC50 was less than 4.00.

Question: What about the pEC50 (Hepatitis C virus [3]) of the same molecule?
Answer: The pEC50 was 7.15.

Question: And the EC90 (Hepatitis C virus [3])?
Answer: Its EC90 is 200 nM.

Question: And the pIC50 (HepG2 [4])?
Answer: The pIC50 was less than 4.30.

Question: What about the pIC50 (Hepatitis C virus [5]) of the same molecule?
Answer: Its pIC50 is 6.82.

Question: What about the Activity (HepG2 [6]) of the same molecule?
Answer: The Activity was 60%.

Question: What about the Activity (HepG2 [7]) of the same molecule?
Answer: Its Activity is 84%.

Question: What about the CC50 at 72 h [8] of the same molecule?
Answer: The CC50 at 72 h was greater than 100000 nM.

Question: And the inhibition at 14 days, 10 µM [9]?
Answer: Its inhibition at 14 days, 10 µM is less than 1%.

Question: And the inhibition at 14 days, 50 µM [10]?
Answer: Its inhibition at 14 days, 50 µM is 27%.

Question: And the remaining at 1 h [11]?
Answer: The remaining at 1 h was 79%.

Question: And the Activity (HepG2 [12])?
Answer: The Activity was 130%.

Question: And the pIC50 (Hepatitis C virus [13])?
Answer: Its pIC50 is 7.30.

Question: And the pIC50 (Hepatitis C virus [14])?
Answer: Its pIC50 is 6.77.

Question: What about the pIC50 (Hepatitis C virus [15]) of the same molecule?
Answer: The pIC50 was 6.89.

Question: What about the Activity [16] of the same molecule?
Answer: The Activity was “Non-Toxic”.

Question: What about the Activity (HepG2 [17]) of the same molecule?
Answer: The Activity was 56%.

Question: What about the microsomal CLint [18] of the same molecule?
Answer: Its microsomal CLint is 29 µL/min/mg.

Question: And the CC50 at 96 h [19]?
Answer: Its CC50 at 96 h is greater than 100000 nM.

Question: What about the half-life at 1 µM (in vitro [20]) of the same molecule?
Answer: The half-life at 1 µM was 0.193 h.

Question: What about the pIC50 (Hepatitis C virus [21]) of the same molecule?
Answer: The pIC50 was 6.82.

Question: What about the remaining at 1 h, 1 µM (in vitro [22]) of the same molecule?
Answer: Its remaining at 1 h, 1 µM is 4.2%.

Question: What about the pEC50 (Hepatitis C virus [23]) of the same molecule?
Answer: The pEC50 was 6.70 to 7.70.

Question: And the EC90 (Hepatitis C virus [23])?
Answer: Its EC90 is 70 to 400 nM.

Question: And the remaining at 2 h, 2 µM [24]?
Answer: The remaining at 2 h, 2 µM was 103%.

Question: What about the pIC50 (Cytochrome P450 2D6) of the same molecule?
Answer: Its pIC50 is less than 4.00.

Question: What about the CC50 at 120 h [25] of the same molecule?
Answer: The CC50 at 120 h was greater than 100000 nM.

Question: What about the Selectivity ratio (Hepatitis C virus [26]) of the same molecule?
Answer: Its Selectivity ratio is 2.9.

Question: What about the pIC50 (Cytochrome P450 3A4) of the same molecule?
Answer: Its pIC50 is 5.17.

Question: And the CC50 at 96 h [27]?
Answer: Its CC50 at 96 h is greater than 10000 nM.

Question: What about the pIC50 (Hepatitis C virus [28]) of the same molecule?
Answer: The pIC50 was 7.05.

Question: And the half-life [29]?
Answer: Its half-life is 2 h.

Question: What about the “fold change (FC)” value [30] of the same molecule?
Answer: Its value is 2.7.

Question: What about the cytotoxicity at 14 days, 50 µM (nuclear DNA levels [31]) of the same molecule?
Answer: The cytotoxicity at 14 days, 50 µM was 13%.

Question: What about the pIC50 (Cytochrome P450 2C9) of the same molecule?
Answer: Its pIC50 is 4.60.

Question: What about the “Ratio EC50” value (Hepatitis C virus [32]) of the same molecule?
Answer: Its value is 3.5.

Question: What about the cytotoxicity at 14 days, 10 µM (nuclear DNA levels [33]) of the same molecule?
Answer: Its cytotoxicity at 14 days, 10 µM is less than 1%.

Question: What about the microsomal CLint at 1 µM (in vitro [34]) of the same molecule?
Answer: Its microsomal CLint at 1 µM is 120 µL/min/mg.

Reference: ChEMBL document CHEMBL4014354, “2'-Chloro,2'-fluoro Ribonucleotide Prodrugs with Potent Pan-genotypic Activity against Hepatitis C Virus Replication in Culture” (J Med Chem, 2017)
